The subject of data set [1] is HBV. Conditions: Science, 2003, 299, 893-896; cited from earlier work.
Data set [2] in a line: Cytotoxicity test with CellTiter Glo. It counts as cell-based. As to conditions: human, HepG2.2.15 cells, highest concentration 150 μM, read-out: CC50 values of the compounds of the invention. An outline of the steps: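 HepG2.2.15 cells (3000/well) exposed to serially diluted compound, highest final concentration 150 μM, for 4 days at 37 °C. Viability read by CellTiter Glo, cytotoxicity % taken relative to DMSO controls, and CC50 obtained by four-parameter nonlinear regression.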

For data set [3], the system named is HBV. The experiment in a line: Test of anti HBV activity in vitro (viral DNA by qPCR). It counts as cell-based. As to conditions: Hepatitis B virus; HepG2.2.15 cells, viral DNA in cell culture supernatant by qPCR; read-out: EC50 values of the compound of the invention on viral replication. The method, boiled down:
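HepG2.2.15 cells (integrated HBV genome) were grown to confluence, then treated with compound in 4-fold dilutions from 4 μM final (0.5% DMSO). Secreted viral DNA in supernatant was quantified by SYBR qPCR against an HBV plasmid standard curve; EC50 from four-parameter nonlinear regression of concentration versus copy number.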

One may read the IC50 as the concentration that inhibits the measured activity by half. What is called CC50 is the concentration giving 50% cytotoxicity. One may read the EC50 as the concentration needed to bring the measured effect to its halfway point.

SMILES strings stand for the structures.

Consider `Nc1ccn([C@@H]2CS[C@H](CO)O2)c(=O)n1` [lamivudine], for which the IC50 with HBV [1] is 300 nM.

As for `COC(=O)C1=C(CN2CCN3C(=O)N(c4ccc(OC5CCC(C(=O)O)CC5)cc4F)C[C@@H]3C2)NC(c2nccs2)=N[C@H]1c1ccc(F)cc1Cl` (stereo partly drawn) [Example 112, 4-(4-((S)-7-(((R)-6-(2-chloro-4-fluorophenyl)-5-(methoxycarbonyl)-2-(thiazol-2-yl)-3,6-dihydropyrimidin-4-yl)methyl)-3-oxohexahydroimidazo[1,5-a]pyrazin-2(3H)-yl)-3-fluorophenoxy)cyclohexane carboxylic acid], the 50% cytotoxic concentration (CC50) at 4 days in data set [2] was over 150000 nM. In addition, the concentration for a half-maximal effect (EC50) in the data set on HBV [3] stood at 15.4 nM.

In the case of `COC(=O)C1=C(CN2CCN3C(=O)N(CC#Cc4ccc(C(=O)N(C)C)cc4)C[C@@H]3C2)NC(c2nccs2)=N[C@H]1c1ccc(F)cc1Cl` [Example 42, (R)-methyl 4-(2-chloro-4-fluorophenyl)-6-(((S)-2-(3-(4-(dimethylcarbamoyl)phenyl)prop-2-yn-1-yl)-3-oxohexahydroimidazo[1,5-a]pyrazin-7(1H)-yl)methyl)-2-(thiazol-2-yl)-1,4-dihydropyrimidine-5-carboxylate], the CC50 at 4 days in data set [2] was over 150000 nM. In addition, in the data set on HBV [3], the concentration giving a half-maximal response (EC50) came to 8 nM.

For the compound `COC(=O)C1=C(CN2CCN3C(=O)N(c4ccc(Oc5ccc(C(=O)N6CCCC6(F)F)cc5)cc4)C[C@@H]3C2)NC(c2nccs2)=N[C@H]1c1ccc(F)cc1Cl` [Example 57, (R)-methyl 4-(2-chloro-4-fluorophenyl)-6-(((S)-2-(4-(4-(2,2-difluoropyrrolidine-1-carbonyl)phenoxy)phenyl)-3-oxohexahydroimidazo[1,5-a]pyrazin-7(1H)-yl)methyl)-2-(thiazol-2-yl)-1,4-dihydropyrimidine-5-carboxylate], the CC50 at 4 days in data set [2] is over 150000 nM. Moreover, the 50% effective concentration (EC50) with HBV [3] is 28.1 nM.

Turning to `COC(=O)C1=C(CN2CCN3C(=O)N(c4ccc(-c5cc(C(=O)O)ccc5F)cc4)C[C@@H]3C2)NC(c2nccs2)=N[C@H]1c1ccc(F)cc1Cl` [Example 116], the CC50 at 4 days in data set [2] is over 150000 nM. Further, the half-maximal effective concentration (EC50) with HBV [3] was 19.9 nM.

On to `COC(=O)C1=C(CN2CCN3C(=O)N(c4ccc(Oc5ccc(C#N)cc5)cc4)C[C@@H]3C2)NC(c2nccs2)=N[C@H]1c1ccc(F)cc1Cl` [Example 97, (R)-methyl 4-(2-chloro-4-fluorophenyl)-6-(((S)-2-(4-(4-cyanophenoxy)phenyl)-3-oxohexahydroimidazo[1,5-a]pyrazin-7(1H)-yl)methyl)-2-(thiazol-2-yl)-1,4-dihydropyrimidine-5-carboxylate], for which, in data set [2], the half-maximal cytotoxic concentration (CC50) at 4 days is over 150000 nM. In addition, the half-maximal effective concentration (EC50) in the data set on HBV [3] is 36.8 nM.

Regarding `COC(=O)C1=C(CN2CCN3C(=O)N(c4ccc(-c5ccc(C(=O)O)cc5)nc4)C[C@@H]3C2)NC(c2nccs2)=N[C@H]1c1ccc(F)cc1Cl` [Example 122, 4-(5-((S)-7-(((R)-6-(2-chloro-4-fluorophenyl)-5-(methoxycarbonyl)-2-(thiazol-2-yl)-3,6-dihydropyrimidin-4-yl)methyl)-3-oxohexahydroimidazo[1,5-a]pyrazin-2(3H)-yl)pyridin-2-yl)benzoic acid], the CC50 at 4 days in data set [2] is over 150000 nM. In the data set on HBV [3], the concentration for a half-maximal effect (EC50) was found to be 45.6 nM.

With `COC(=O)C1=C(CN2CCN3C(=O)N(c4ccc(Sc5ccc(OC(C)C)cc5)cc4)C[C@@H]3C2)NC(c2nccs2)=N[C@H]1c1ccc(F)cc1Cl` [Example 105, (R)-methyl 4-(2-chloro-4-fluorophenyl)-6-(((S)-2-(4-((4-isopropoxyphenyl)thio)phenyl)-3-oxohexahydroimidazo[1,5-a]pyrazin-7(1H)-yl)methyl)-2-(thiazol-2-yl)-1,4-dihydropyrimidine-5-carboxylate], in data set [2], the CC50 at 4 days is over 150000 nM. In addition, the half-maximal effective concentration (EC50) with HBV [3] worked out at 29 nM.

Take `COC(=O)C1=C(CN2CCN3C(=O)N(c4nc(-c5ccc(CCC(=O)O)cc5)cs4)C[C@@H]3C2)NC(c2nccs2)=N[C@H]1c1ccc(F)cc1Cl` [Example 135, 3-(4-(2-((S)-7-(((R)-6-(2-chloro-4-fluorophenyl)-5-(methoxycarbonyl)-2-(thiazol-2-yl)-3,6-dihydropyrimidin-4-yl)methyl)-3-oxohexahydroimidazo[1,5-a]pyrazin-2(3H)-yl)thiazol-4-yl)phenyl)propanoic acid]: in data set [2], the 50% cytotoxic concentration (CC50) at 4 days was over 150000 nM. The EC50 in the data set on HBV [3] was determined as 6.5 nM.

Turning to `COC(=O)C1=C(CN2CCN3C(=O)N(c4cc(F)cc(OC5CCC(C(=O)O)CC5)c4)C[C@@H]3C2)NC(c2nccs2)=N[C@H]1c1ccc(F)cc1Cl` (stereo partly drawn) [Example 23, 4-(3-((S)-7-(((R)-6-(2-chloro-4-fluorophenyl)-5-(methoxycarbonyl)-2-(thiazol-2-yl)-3,6-dihydropyrimidin-4-yl)methyl)-3-oxohexahydroimidazo[1,5-a]pyrazin-2(3H)-yl)-5-fluorophenoxy)cyclohexane carboxylic acid], the cytotoxic concentration (CC50) at 4 days in data set [2] was over 150000 nM. Also, the concentration for a half-maximal effect (EC50) in the data set on HBV [3] is 7 nM.

Regarding `COC(=O)C1=C(CN2CCN3C(=O)N(c4ccc(N5CCC(C(=O)O)CC5)cc4F)C[C@@H]3C2)NC(c2nccs2)=N[C@H]1c1ccc(F)cc1Cl` [Example 31, 1-(4-((S)-7-(((R)-6-(2-chloro-4-fluorophenyl)-5-(methoxycarbonyl)-2-(thiazol-2-yl)-3,6-dihydropyrimidin-4-yl)methyl)-3-oxohexahydroimidazo[1,5-a]pyrazin-2(3H)-yl)-3-fluorophenyl)piperidine-4-carboxylic acid], the CC50 at 4 days in data set [2] is over 150000 nM. Besides, the 50% effective concentration (EC50) in the data set with HBV [3] is 16 nM.

`COC(=O)C1=C(CN2CCN3C(=O)N(c4ccc(F)c(-c5ccc(C(=O)O)cc5)c4)C[C@@H]3C2)NC(c2nccs2)=N[C@H]1c1ccc(F)cc1Cl` [Example 114, 5′-((S)-7-(((R)-6-(2-chloro-4-fluorophenyl)-5-(methoxycarbonyl)-2-(thiazol-2-yl)-3,6-dihydropyrimidin-4-yl)methyl)-3-oxohexahydroimidazo[1,5-a]pyrazin-2(3H)-yl)-2′-fluoro-[1,1′-biphenyl]-4-carboxylic acid]: in data set [2], the CC50 at 4 days was over 150000 nM. Moreover, in the data set on HBV [3], the EC50 came out at 27.7 nM.

Regarding `COC(=O)C1=C(CN2CCN3C(=O)N(CC#Cc4ccc(C(C)(C)O)cc4)C[C@@H]3C2)NC(c2nccs2)=N[C@H]1c1ccc(F)cc1Cl` [Example 38, (R)-methyl 4-(2-chloro-4-fluorophenyl)-6-(((S)-2-(3-(4-(2-hydroxyprop-2-yl)phenyl)-2-propyn-1-yl)-3-oxohexahydroimidazo[1,5-a]pyrazin-7(1H)-yl)methyl)-2-(thiazol-2-yl)-1,4-dihydropyrimidine-5-carboxylate], the 50% cytotoxic concentration (CC50) at 4 days in data set [2] is over 150000 nM. In the data set with HBV [3], the EC50 was found to be 7.1 nM.

For `COC(=O)C1=C(CN2CCN3C(=O)N(c4ccc(Oc5ccc(C(=O)O)cc5F)cn4)C[C@@H]3C2)NC(c2nccs2)=N[C@H]1c1ccc(F)cc1Cl` [Example 22, 4-((6-((S)-7-(((R)-6-(2-chloro-4-fluorophenyl)-5-(methoxycarbonyl)-2-(thiazol-2-yl)-3,6-dihydropyrimidin-4-yl)methyl)-3-oxohexahydroimidazo[1,5-a]pyrazin-2(3H)-yl)pyridin-3-yl)oxy)-3-fluorobenzoic acid], the CC50 at 4 days in data set [2] was over 150000 nM. For the same compound, in the data set with HBV [3], the concentration for a half-maximal effect (EC50) amounted to 18 nM.

Turning to `COC(=O)C1=C(CN2CCN3C(=O)N(CC#Cc4ccc(S(=O)(=O)N(C)C)cc4)C[C@@H]3C2)NC(c2nccs2)=N[C@H]1c1ccc(F)cc1Cl` [Example 43, (R)-methyl 4-(2-chloro-4-fluorophenyl)-6-(((S)-2-(3-(4-(N,N-dimethylaminosulfonyl)phenyl)prop-2-yn-1-yl)-3-oxohexahydroimidazo[1,5-a]pyrazin-7(1H)-yl)methyl)-2-(thiazol-2-yl)-1,4-dihydropyrimidine-5-carboxylate], the CC50 at 4 days in data set [2] was over 150000 nM. Moreover, in the data set on HBV [3], the EC50 was 7.2 nM.

`COC(=O)C1=C(CN2CCN3C(=O)N(c4cc(F)cc(Oc5ccc(C(=O)O)cc5F)c4)C[C@@H]3C2)NC(c2nccs2)=N[C@H]1c1cccc(F)c1Cl` [Example 90, 4-(3-((S)-7-(((R)-6-(2-chloro-3-fluorophenyl)-5-(methoxycarbonyl)-2-(thiazol-2-yl)-3,6-dihydropyrimidin-4-yl)methyl)-3-oxohexahydroimidazo[1,5-a]pyrazin-2(3H)-yl)-5-fluorophenoxy)-3-fluorobenzoic acid]: the 50% cytotoxic concentration (CC50) at 4 days in data set [2] was over 150000 nM. Also, in the data set with HBV [3], the EC50 was determined as 12.5 nM.
